Source: patent US11180485B2, “Diaryl-azole compound and formulation for controlling harmful organism” (Nippon Soda Co., Ltd., priority 2016, dated 2021)

Tests used:
Nilaparvata lugens = assay: Test Examples 6 and 13: efficacy test against Nilaparvata lugens (rice seedling soak); format: in vivo; conditions: 168 h, rice seedlings soaked 30 seconds, second-instar larvae, 7 days after inoculation, read-out: mortality rate against Nilaparvata lugens
Protocol: (§1) 5 parts of the compound of the present invention, 93.6 parts of dimethylformamide and 1.4 parts of polyoxyethylene alkyl aryl ether were mixed and dissolved to prepare Emulsion (1) including 5% of an active ingredient.
(§2) An insect mortality rate and a controlling rate were calculated by the numerical equations shown below. Insect mortality rate (%)=(Number of dead insects)/(Number of sample insects)×100 Controlling rate={1−(Nt)/(Nc)}×100
(§3) Emulsion (1) was diluted with water so that the concentration of the compound of the present invention was 125 ppm. Rice seedlings were soaked in the diluted liquid for 30 seconds, and subjected to air-drying. Subsequently, the rice seedlings were placed in plastic cases, followed by inoculating 5 second-instar larvae of Nilaparvata lugens. The plastic cases were placed in a thermostatic chamber at a temperature of 25° C. and humidity of 65%. Mortality was investigated 7 days after inoculation, and the insect mortality rate was calculated. The test was performed twice.
as §3, with “8” for “125”

Culex pipiens molestus = assay: Test Example 10: efficacy test against Culex pipiens molestus; format: in vivo; conditions: 24 h, 20 first-instar larvae in 100 mL, after one day, read-out: mortality rate against first-instar larvae of Culex pipiens molestus (converted)
Protocol: as §1, §2
Emulsion (1) was diluted with water so that the concentration of the compound of the present invention was 10 ppm, to prepare a chemical liquid for testing. 20 first-instar larvae of Culex pipiens molestus were released in 100 mL of the chemical liquid. After one day, the number of dead insects was counted, and the insect mortality rate was calculated. The test was performed twice.

Phyllotreta striolata = assay: Test Examples 7 and 14: efficacy test against Phyllotreta striolata (spray on bok-choi seedlings); format: in vivo; conditions: 168 h, sprayed on bok-choi seedlings, adults, 7 days after inoculation, read-out: mortality rate against adult Phyllotreta striolata
Protocol: as §1, §2
(§4) Emulsion (1) was diluted with water so that the concentration of the compound of the present invention was 125 ppm, to prepare a diluted liquid for testing. The aforementioned diluted liquid was sprayed on bok-choi seedlings (7th major leaf-development period) planted in No. 3 pots. After the bok-choi seedlings were subjected to air-drying, the seedlings were placed in plastic cups, followed by inoculating 10 adult Phyllotreta striolata. The plastic cups were stored in a thermostatic chamber at a temperature of 25° C. and humidity of 65%. Mortality was investigated 7 days after inoculation, and the insect mortality rate was calculated. The test was performed twice.
as §4, with “8” for “125”

Plutella xylostella = assay: Test Example 3: efficacy test against Plutella xylostella (cabbage leaf soak); format: in vivo; conditions: 72 h, cabbage leaves soaked 30 seconds, second-instar larvae, 3 days after inoculation, read-out: mortality rate against Plutella xylostella
Protocol: as §1, §2
Emulsion (1) was diluted with water so that the concentration of the compound of the present invention was 125 ppm. Cabbage leaves were soaked in the diluted liquid for 30 seconds. Subsequently, the cabbage leaves were put on Petri dishes, followed by inoculating 5 second-instar larvae of Plutella xylostella. The Petri dishes were placed in a thermostatic chamber at a temperature of 25° C. and humidity of 60%. Mortality was investigated 3 days after inoculation, and the insect mortality rate was calculated. The test was performed twice.

Aphis craccivora = assay: Test Example 4: efficacy test against Aphis craccivora (spray on black-eyed pea plants); format: in vivo; conditions: in Vigna unguiculata, 96 h, sprayed on black-eyed pea plants with nymphs, 4 days after spraying, read-out: mortality rate against Aphis craccivora
Protocol: as §1, §2
Black-eyed pea plants were raised in No. 3 pots and the primary leaves were inoculated with nymphs of Aphis craccivora. Emulsion (1) was diluted with water so that the concentration of the compound of the present invention was 125 ppm. Subsequently, the aforementioned diluted liquid was sprayed on the black-eyed pea plants on which the nymphs of Aphis craccivora were parasitic. The aforementioned black-eyed pea plants were then placed in a thermostatic chamber with a temperature of 25° C. and humidity of 60%. Mortality was investigated 4 days after spraying was carried out, and the insect mortality rate of Aphis craccivora was calculated. The test was performed twice.

Row | SMILES | mortality at 125 ppm (Nilaparvata lugens) [%] | mortality at 10 ppm (Culex pipiens molestus) [%] | mortality at 125 ppm (Phyllotreta striolata) [%] | mortality at 125 ppm (Plutella xylostella) [%] | mortality at 125 ppm (Aphis craccivora) [%] | melting point [°C] | further results
1 | CCS(=O)(=O)c1ccc(-n2cnc(C)n2)nc1-c1ncc(-c2ccc(OC(F)(F)F)cc2)n1C [Compound No. a-8, 3-(ethylsulfonyl)-6-(3-methyl-1H-1,2,4-triazol-1-yl)-2-(1-methyl-5-(4-(trifluoromethoxy)phenyl)-1H-imidazol-2-yl)pyridine] | ≥ 80 | 100 | ≥ 80 | ≥ 80 | ≥ 80 |  | 
2 | CCS(=O)(=O)c1cnc(-n2cncn2)nc1-c1ncc(-c2ccc(OC(F)(F)F)cc2)n1C [Compound No. 3, 5-(ethylsulfonyl)-4-(1-methyl-5-(4-(trifluoromethoxy)phenyl)-1H-imidazol-2-yl)-2-(1H-1,2,4-triazol-1-yl)pyrimidine] |  | 100 |  |  |  |  | 
3 | CCS(=O)(=O)c1cc(C(F)(F)F)ccc1-c1nc(Br)c(-n2cc(I)cn2)n1C [b-1] |  |  |  |  |  | 202 to 204 | 
4 | CCSc1cnc(-n2cncn2)nc1-c1ncc(-c2ccc(OC(F)(F)F)cc2)n1C [compound 2, 5-(ethylthio)-4-(1-methyl-5-(4-(trifluoromethoxy)phenyl)-1H-imidazol-2-yl)-2-(1H-1,2,4-triazol-1-yl)pyrimidine] |  | 100 |  |  |  |  | 
5 | CCS(=O)(=O)c1cnc(-c2ncccn2)nc1-c1ncc(-c2ccc(OC(F)(F)F)cc2)n1C [Compound No. 7, 5-(ethylsulfonyl)-4-(1-methyl-5-(4-(trifluoromethoxy)phenyl)-1H-imidazol-2-yl)-2,2′-bipyrimidine] | ≥ 80 |  | ≥ 80 | ≥ 80 | ≥ 80 |  | mortality at 8 ppm (Nilaparvata lugens; 8 ppm): ≥ 80%; mortality at 8 ppm (Phyllotreta striolata; 8 ppm): ≥ 80%
6 | CCS(=O)(=O)c1cc(C(F)(F)F)ccc1-c1nc(Br)c(-n2cc(C(F)(F)F)cn2)n1C [b-2] |  |  |  |  |  | 176 to 178 | 
